Source: US11576979B2, “Pyrrolobenzodiazepine prodrugs and antibody conjugates thereof” (GENENTECH, INC., priority 2016, dated 2023)
Where “and” joins values, the source holds several entries; their conditions need not be identical. Identical values can stand only once.

Legend:
UACC-257 = experiment: CellTiter-Glo toxicity, 4 days (Example 9); format: cell-based; conditions: 4 days of drug incubation, Table 7A
Procedure: (§1) The toxicity of various PBD monomer disulfide prodrugs and PBD dimer disulfide prodrugs was evaluated on UACC-257, Igrov-1 and A2058 cell lines. Cells were seeded in 384-well plate and treated with drug 24 hours later. After 4 days of drug incubation, the cell viability was determined using Promega CellTiter-Glo luminescent reagent, which measures ATP level (an indirect measure of cell number). The luminescent intensity was measured on PerkinElmer Envision reader. The relative cell viability was calculated by normalizing to non-drug treatment control and was graphed using KleidaGraph software package. IC50 value was determined as the concentration to obtain 50% of the maximum cell killing.

A2058 = experiment: CellTiter-Glo toxicity, 4 days (Example 9); format: cell-based; conditions: 4 days of drug incubation, Table 7A
Procedure: as §1

Igrov-1 = experiment: CellTiter-Glo toxicity, 4 days (Example 9); format: cell-based; conditions: 4 days of drug incubation, Table 7A
Procedure: as §1

[1] = Disulfide cleavage by cysteine, LC/MS; format: physicochemical; conditions: 15 uM compound, 0.2 mM cysteine, pH 7.0, 37 C
Procedure: (§2) For disulfide cleavage determination, the compounds were incubated at 15 μM with 0.2 mM cysteine or 4 mM GSH in 100 mM Tris buffer pH 7.0 containing 5% methanol at 37° C. Aliquots were taken at specified time points and the samples were analyzed by LC/MS on Sciex TripleTOF 5600 on a Hypersil Gold C18 column (100×2.1, 1.9 Thermo Scientific). The column was eluted by a gradient of buffer A (0.1% formic acid in 10 mM ammonium acetate) to buffer B (0.1% formic acid in 10 mM ammonium acetate in 90% acetonitrile), 5% B 0-0.5 min, 5-25% B 0.5-8 min, 25-75% B 8-13 min, and 75-95% B 13-13.5 min, 95% B 13.5-14.5 min, 95-5% B 14.5-15 min at 0.4 mL/min. All products were separated and characterized by LC/MS/MS in a positive ESI ion mode. All analytes had the protonated molecular MH+ as the major species with little source fragmentation. Full scan accurate mass peak areas were used to estimate relative abundance of each component.

[2] = Disulfide cleavage by glutathione (GSH), LC/MS; format: physicochemical; conditions: 15 uM compound, 4 mM GSH, pH 7.0, 37 C
Procedure: as §2

Structure (SMILES) | IC50 (UACC-257; Homo sapiens, UACC-257, 96 h) [nM] | IC50 (A2058; Homo sapiens, A2058, 96 h) [nM] | IC50 (Igrov-1; Homo sapiens, IGROV-1, 96 h) [nM] | % Remaining at 24 h by Cys [1] | % Remaining at 24 h by GSH [2] [%] | IC50 (UACC-257) [nM] | IC50 (A2058) [nM] | IC50 (Igrov-1) [nM] | % Remaining at 4 h by Cys ([1]; 4 h) [%]
C=C1C[C@H]2C(O)N(C(=O)OCC3(SSCC)CCOC3)c3cc(OC)c(OC)cc3C(=O)N2C1 (single isomer, unassigned) [PBD monomer disulfide prodrug 11] | 331 | 108 | 207 | 14.4% | 0 |  |  |  | 
C=C1C[C@H]2C(O)N(C(=O)OCC3(SSCC)CCOC3)c3cc(OC)c(OC)cc3C(=O)N2C1 (single isomer, unassigned) [PBD monomer disulfide prodrug 30] |  |  |  | 47.1% | 0 | 308 | 108 | 235 | 
C=C1C[C@H]2C(O)N(C(=O)OCC3(SSC(C)C)CC3)c3cc(OC)c(OC)cc3C(=O)N2C1 (stereo partly shown) [PBD monomer disulfide prodrug 7] | > 30000 | 11000 | > 30000 | 96.1% | 89.7 |  |  |  | 
C=C1C[C@H]2C(O)N(C(=O)OCC3(SSCCO)CCCC3)c3cc(OC)c(OC)cc3C(=O)N2C1 (stereo partly shown) [PBD monomer disulfide prodrug 8] | 194 | 47.2 | 172 | 86.7% | 0.5 |  |  |  | 
C=C1C[C@H]2C(O)N(C(=O)OCC3(SSCC(=O)O)CCC3)c3cc(OC)c(OC)cc3C(=O)N2C1 (stereo partly shown) [PBD monomer disulfide prodrug 9] | 2110 | 292 | 1050 | 81.1% | 1 |  |  |  | 
C=C1C[C@H]2C(O)N(C(=O)OCC(C)(C)SSC(C)C)c3cc(OC)c(OC)cc3C(=O)N2C1 (stereo partly shown) [PBD monomer disulfide prodrug 10] | 4730 | 1830 | 4810 | 99.4% | 88.5 |  |  |  | 
C=C1C[C@H]2C(O)N(C(=O)OC[C@@H](C)SSCC)c3cc(OC)c(OC)cc3C(=O)N2C1 (stereo partly shown) [PBD monomer disulfide prodrug 12] | 156 | 31.1 | 83.6 | 72.7% | 9.5 |  |  |  | 
C=C1C[C@H]2C(O)N(C(=O)OC[C@@H](C)SSC(C)(C)C)c3cc(OC)c(OC)cc3C(=O)N2C1 (stereo partly shown) [PBD monomer disulfide prodrug 13] | > 10000 | > 10000 | > 10000 | 99.9% | 98.8 |  |  |  | 
C=C1C[C@H]2C(O)N(C(=O)OCC(C)(C)SSCC)c3cc(OC)c(OC)cc3C(=O)N2C1 (stereo partly shown) [PBD monomer disulfide prodrug 14] |  |  |  | 68.1% | 3 |  |  |  | 
C=C1C[C@H]2C(O)N(C(=O)OC[C@@H](C)SSC(C)C)c3cc(OC)c(OC)cc3C(=O)N2C1 (stereo partly shown) [PBD monomer disulfide prodrug 15] | 1500 | 304 | 928 | 99.2% and 90.8% |  |  |  |  | 
C=C1C[C@H]2C(O)N(C(=O)OCCSSC(C)(C)C)c3cc(OC)c(OC)cc3C(=O)N2C1 (stereo partly shown) [PBD monomer disulfide prodrug 16] | 19500 | 5590 | 18500 | 98.6% | 73.2 |  |  |  | 
C=C1C[C@H]2C(O)N(C(=O)OCC3(SSCC)CC3)c3cc(OC)c(OC)cc3C(=O)N2C1 (stereo partly shown) [PBD monomer disulfide prodrug 17] |  |  |  | 34.9% | 0 |  |  |  | 
C=C1C[C@H]2C(O)N(C(=O)OCC3(SSCC)CCCCC3)c3cc(OC)c(OC)cc3C(=O)N2C1 (stereo partly shown) [PBD monomer disulfide prodrug 18] |  |  |  | 75.3% | 18.7 |  |  |  | 
C=C1C[C@H]2C(O)N(C(=O)OCc3ccc(SSC(C)C)cc3)c3cc(OC)c(OC)cc3C(=O)N2C1 (stereo partly shown) [PBD monomer disulfide prodrug 19] | 147 | 37.7 | 77.4 | 4.4% | 0 |  |  |  | 
C=C1C[C@H]2C(O)N(C(=O)OCC(CN(C)C)SSC(C)C)c3cc(OC)c(OC)cc3C(=O)N2C1 (stereo partly shown) [PBD monomer disulfide prodrug 20] |  |  |  | 0% | 0 |  |  |  | 34
C=C1C[C@H]2C(O)N(C(=O)OCC(COC)SSC(C)C)c3cc(OC)c(OC)cc3C(=O)N2C1 (stereo partly shown) [PBD monomer disulfide prodrug 21] |  |  |  | 74.7% | 0 |  |  |  | 
C=C1C[C@H]2C(O)N(C(=O)OCC3(SSCCO)CCOC3)c3cc(OC)c(OC)cc3C(=O)N2C1 (stereo partly shown) [PBD monomer disulfide prodrug 22] | 80.6 | 23.7 | 39.8 | 1.4% | 0 |  |  |  | 
C=C1C[C@H]2C(O)N(C(=O)OC[C@@H](C)SSC3CCOCC3)c3cc(OC)c(OC)cc3C(=O)N2C1 (stereo partly shown) [PBD monomer disulfide prodrug 24] | 2690 | 596 | 1480 | 0.1% | 0 |  |  |  | 
C=C1C[C@H]2C(O)N(C(=O)OC[C@@H](C)SSC3COC3)c3cc(OC)c(OC)cc3C(=O)N2C1 (stereo partly shown) [PBD monomer disulfide prodrug 26] | 328 | 84.5 | 246 | 29.1% | 0 |  |  |  | 
C=C1C[C@H]2C(O)N(C(=O)OCCSSCCC(=O)O)c3cc(OC)c(OC)cc3C(=O)N2C1 (stereo partly shown) [PBD monomer disulfide prodrug 27] | 939 | 261 | 958 |  | 0 |  |  |  | 
C=C1C[C@H]2C(O)N(C(=O)OCCSSC3CCCC3)c3cc(OC)c(OC)cc3C(=O)N2C1 (stereo partly shown) [PBD monomer disulfide prodrug 28] | 2100 | 920 | 2300 | 62.2% | 0 |  |  |  | 
C=C1C[C@H]2C(O)N(C(=O)OCCSSCCO)c3cc(OC)c(OC)cc3C(=O)N2C1 (stereo partly shown) [PBD monomer disulfide prodrug 29] | 142 | 29.1 | 57.8 | 0% | 0 |  |  |  | 
